From publication PMC6143625, “A high throughput screen for next-generation leads targeting malaria parasite transmission” (Nature Communications, 2018)
Several values for one entry are separate records, joined by “and”; a condition that tells them apart may be missing. Identical values can stand only once.

Key:
[1] = tested on: P. falciparum male gametocytes; assay: Pf DGFA wash-out format, male readout; type: cell-based; conditions: Plasmodium falciparum; 48h preincubation/wash-out
[2] = tested on: P. falciparum female gametocytes; assay: Pf DGFA wash-out format, female readout; type: cell-based; conditions: Plasmodium falciparum; 48h preincubation/wash-out
[3] = tested on: P. falciparum male gametogenesis; assay: Phenotypic immunofluorescence assay of male gamete formation; type: cell-based, Plasmodium falciparum; conditions: 10 µM, 24 h treatment, 0–20 min post induction
Method: In vitro evolution followed by whole-genome analysis is the primary approach currently used for understanding how compounds act in malaria parasites. As it is not currently feasible to generate resistant mutants to compounds that are only active in the gametocyte stage (resistance generation requires extensive rounds of replication in the presence of compound), phenotypic immunofluorescence assays were performed to evaluate compound activity on male gamete formation. Gametocytes treated with 10 µM of each compound were sampled at 0, 2, 3, 4, 6, 8, 10, and 20 min post induction of gamete formation before imaging (Fig. 4). Individual male cells were then extracted from the images and analysed for shape and haploid chromosome number/DNA content to quantitatively measure the progression of DNA replication (n = 198–668 cells) (Fig. 5a).
Day 14 gametocyte culture was divided into 4 ml aliquots and treated either with DMSO or 10 µM test compound. After 24 h, 500 µl aliquots of the non-activated gametocytes were fixed in an equal volume of 8% paraformaldehyde (PFA) warmed to 37 °C to generate Time = 0 min (t = 0) samples. Gamete formation was induced in the remainder of the cultures by cooling to RT and addition of 500 µl ookinete medium. At t = 2, 3, 4, 6, 8, 10, and 20 min 500 µl of culture was removed and immediately fixed in equal volume of 8% PFA at room temperature for 15 min. Fixed cells were diluted in PBS and allowed to settle onto poly-L-lysine-coated glass coverslips overnight. The next day, cells were washed in PBS, permeabilized in 0.1% Triton X-100 and blocked in PBS + 10% FBS. Cells were stained with mouse anti-alpha tubulin (Sigma) clone DM1A (1:500 dilution) and rabbit anti-Glycophorin A (Abcam) clone EPR8200 (1:1000 dilution). Staining was visualised with anti-mouse […] and anti-rabbit Alexa555 (Thermo-Fisher) both at 1:1000 dilution. Coverslips were mounted onto glass slides with VectaShield mountant (Vector Laboratories) containing 4′,6-diamidino-2-phenylindole (DAPI) to visualise cellular DNA. Cells were imaged at random (n = 195–668 cells per test compound) using a Nikon Ti-E widefield microscope using a × 100 objective lens and taken in 0.2 µm slice z-stack images to capture the whole cell. All images were converted to maximum intensity projections in NIS Elements v4.20 and all further image processing performed in ICY. Individual cells were manually selected and automatically extracted from each image using the Active Contours plugin gated to the tubulin staining. Using the ROI Statistics plugin, the following parameters were calculated for each cell and exported to MS Excel: Cell area, Cell roundness, Cell elongation, and Average intensity of blue channel (DNA). […] Outlier cells from the curve were all exflagellating (Supplementary Fig. 6). These two parameters were combined as a ratio of roundness:elongation to produce the parameter Cell shape. Cellular DNA content was estimated by multiplying the average pixel intensity of the blue channel (after subtracting the background intensity of an empty area in the same parent image) with the total cell area.

[4] = tested on: P. falciparum transmission to Anopheles stephensi mosquitoes; assay: P. falciparum standard membrane-feeding assay (SMFA), luciferase oocyst readout; type: in vivo, Plasmodium falciparum; conditions: 10 µM
Method: SMFAs were performed commercially by TropiQ Health Sciences (Nijmegen, The Netherlands)[26]. Cultures of mature stage V gametocytes of P. falciparum expressing a GFP-Luciferase fusion protein under the control of the hsp70 promoter were treated with DMSO or 10 µM of test compound for 24 h (indirect mode). They were then mixed with uninfected erythrocytes and pelleted. The cell pellet was resuspended in human serum to form the blood meal and fed to Anopheles stephensi mosquitoes. […] Eight days after infection, mosquitoes were individually processed and their lysate assessed for luciferase activity in comparison to uninfected mosquitoes.

[5] = tested on: NF54 stage V gametocytes; assay: Gametocytocidal MitoTracker-based viability assay (SaLSSA); type: cell-based, Plasmodium falciparum NF54; conditions: Plasmodium falciparum, NF54; 72h incubation; read-out: Pf Stage V GCT (mitotracker assay) IC50
Method: As another independent assessment of the metabolic viability of compound-treated stage V gametocytes, the Saponin-lysis Sexual Stage Assay (SaLSSA) was employed. A volume of 100 nl of test compounds were pre-dispensed in 384-well plates (781091-2B, Greiner) in 12-point dose response (25 µM to 1.41 × 10^−4 µM), prior to the addition of synchronous NF54 stage V gametocytes (40 µl at 0.70% gametocytaemia). Assay plates were then incubated for 72 h in a low oxygen environment (92% N2, 5% CO2, 3%O2) before a 10 µl MitoTracker Red CMXRos (2.5 µM) and saponin solution (0.13%w/v) was added. Plates were returned to 37 °C for 1 h to allow for complete red blood cell lysis, after which viable gametocytes were detected using an Operetta high-content imaging system. Analysis was performed using the Harmony package software, with potency calculated relative to puromycin (positive control) and DMSO (negative control).

[6] = tested on: P. berghei 507 strain in mice, transmission to Anopheles stephensi; assay: P. berghei mosquito (direct) feeding assay in infected mice; type: in vivo, Plasmodium berghei
Method: Six- to eight-week female T0 mice were treated with phenylhydrazine 3 days prior to intraperitoneal (IP) inoculation with 100 µl of mouse blood infected with the constitutively GFP expressing P. berghei 507 strain[39]. On day 3 after infection, thin blood smears were taken from tail blood to quantify parasitaemia and gametocytaemia. […] […] Twenty-four hours after feeding, unfed mosquitoes were removed and remaining mosquitoes maintained for a further 9 days on sucrose solution. Mosquito midguts were then dissected, imaged and oocysts quantified by semi-automated computer analysis.

[7] = Aqueous solubility (DMPK); type: physicochemical; conditions: aqueous medium
Method: DMPK analyses were performed by the Dundee University Drug Discovery Unit and BPCA/DDD599 stability analysis were undertaken by chemists at GlaxoSmithKline using in-house, standardised approaches.

[8] = per mouse, 50mg/kg, baseline, listed as DDD291, 50 mg/kg
[9] = per mouse, 50mg/kg, listed as DDD291, 50 mg/kg

OC1(CN2CCC(Oc3cccc(C(F)(F)F)c3)CC2)CCNC1 (stereo not drawn) [DDD01245291]
IC50 [1]: 680 nM | IC50 [2]: 1510 nM | phenotype of male gametogenesis (IFA) [3]: arrested after rounding up | prevalence of infection, % of the DMSO control ([4]; indirect mode): no infected mosquitoes observed | mean normalised luciferase intensity ([4]; indirect mode, 24 h gametocyte incubation, oocysts 8 days later): 1.37 arbitrary units | Prevalence ([4]; mode indirect, per experiment): 0.0% | Average oocyst intensity ([4]; mode indirect, per experiment, listed as DDD291): 2.7 and 3.2 and 3.3 | IC50 [5]: > 12500 nM | transmission blocking efficacy at the oocyst level ([6]; 50 mg kg^−1 IP, 24 h before mosquito feeding): not possible to measure a reduction in transmission at the oocyst level | suppression of gametocytaemia compared to vehicle-only controls ([6]; 50 mg kg^−1 IP, 24 h exposure): ~ 6 fold | effect on asexual parasitaemia ([6]; 50 mg kg^−1 IP, single dose): did not affect asexual parasitaemia | Infection Prevalence (%) ([6]; Dose 24hr prior to feeding, per mouse): 100% | Mean oocysts per mosquito ([6]; Dose 24hr prior to feeding, per mouse, listed as DDD291): 239.06 and 211.28 | Asexual parasitemia (%) Before treatment [6, 8]: 0.86% and 0.55% | Gametocytemia (%) Before treatment [6, 8]: 0.32% and 0.16% | Asexual parasitemia (%) 24hr After treatment [6, 9]: 5.70% and 4.55% | Gametocytemia (%) 24hr After treatment [6, 9]: 0.30% and 0.51% | solubility [7]: > 250 µM
